Measured values as given in US12295936B2, “Immunomodulating urea azalides” (Zoetis Services LLC, priority 2020, dated 2025).

The compounds below were run on BRD pathogens, M. haemolytica and P. multocida (assay: MIC screening panel of BRD pathogens (antibacterial / non-antibacterial)). Settings: read-out: antibacterial / non-antibacterial (MIC for the BRD pathogens).

SMILES	MIC [µg/mL]
CC[C@H]1OC(=O)[C@H](C)[C@@H](O[C@H]2C[C@@](C)(OC)[C@](O)(CCl)[C@H](C)O2)[C@H](C)[C@@H](O[C@@H]2O[C@H](C)C[C@H](N(C)C(=O)Nc3ccccc3)[C@H]2O)[C@](C)(O)C[C@@H](C)CN[C@H](C)[C@@H](O)[C@]1(C)O [Example E-1, 1-((2S,3R,4S,6R)-2-(((2R,3S,4R,5R,8R,10R,11R,12S,13S,14R)-13-(((2R,4R,5S,6S)-5-(chloromethyl)-5-hydroxy-4-methoxy-4,6-dimethyltetrahydro-2H-pyran-2-yl)oxy)-2-ethyl-3,4,10-trihydroxy-3,5,8,10,12,14-hexamethyl-15-oxo-1-oxa-6-azacyclopentadecan-11-yl)oxy)-3-hydroxy-6-methyltetrahydro-2H-pyran-4-yl)-1-methyl-3-phenylurea]	> 64
CC[C@H]1OC(=O)[C@H](C)[C@@H](O[C@H]2C[C@@](C)(OC)[C@](O)(CN=[N+]=[N-])[C@H](C)O2)[C@H](C)[C@@H](O[C@@H]2O[C@H](C)C[C@H](N(C)C(=O)Nc3ccccc3)[C@H]2O)[C@](C)(O)C[C@@H](C)CN[C@H](C)[C@@H](O)[C@]1(C)O [Example F-1, 1-((2S,3R,4S,6R)-2-(((2R,3S,4R,5R,8R,10R,11R,12S,13S,14R)-13-(((2R,4R,5S,6S)-5-(azidomethyl)-5-hydroxy-4-methoxy-4,6-dimethyltetrahydro-2H-pyran-2-yl)oxy)-2-ethyl-3,4,10-trihydroxy-3,5,8,10,12,14-hexamethyl-15-oxo-1-oxa-6-azacyclopentadecan-11-yl)oxy)-3-hydroxy-6-methyltetrahydro-2H-pyran-4-yl)-1-methyl-3-phenylurea]	> 64
CC[C@H]1OC(=O)[C@H](C)[C@@H](O[C@H]2C[C@@](C)(OC)[C@](O)(CC#N)[C@H](C)O2)[C@H](C)[C@@H](O[C@@H]2O[C@H](C)C[C@H](N(C)C(=O)Nc3ccccc3)[C@H]2O)[C@](C)(O)C[C@@H](C)CN[C@H](C)[C@@H](O)[C@]1(C)O [Example G-1, 1-((2S,3R,4S,6R)-2-(((2R,3S,4R,5R,8R,10R,11R,12S,13S,14R)-13-(((2R,4R,5S,6S)-5-(cyanomethyl)-5-hydroxy-4-methoxy-4,6-dimethyltetrahydro-2H-pyran-2-yl)oxy)-2-ethyl-3,4,10-trihydroxy-3,5,8,10,12,14-hexamethyl-15-oxo-1-oxa-6-azacyclopentadecan-11-yl)oxy)-3-hydroxy-6-methyltetrahydro-2H-pyran-4-yl)-1-methyl-3-phenylurea]	> 64
CC[C@H]1OC(=O)[C@H](C)[C@@H](O[C@H]2C[C@@](C)(OC)[C@](O)(CC#N)[C@H](C)O2)[C@H](C)[C@@H](O[C@@H]2O[C@H](C)C[C@H](N(C)C(=O)N(C)c3ccc(C(F)(F)F)cc3)[C@H]2O)[C@](C)(O)C[C@@H](C)CN[C@H](C)[C@@H](O)[C@]1(C)O [Example G-3, 1-((2S,3R,4S,6R)-2-(((2R,3S,4R,5R,8R,10R,11R,12S,13S,14R)-13-(((2R,4R,5S,6S)-5-(cyanomethyl)-5-hydroxy-4-methoxy-4,6-dimethyltetrahydro-2H-pyran-2-yl)oxy)-2-ethyl-3,4,10-trihydroxy-3,5,8,10,12,14-hexamethyl-15-oxo-1-oxa-6-azacyclopentadecan-11-yl)oxy)-3-hydroxy-6-methyltetrahydro-2H-pyran-4-yl)-1,3-dimethyl-3-(4-(trifluoromethyl)phenyl)urea]	> 64
